Reference: patent US20260055061A1, “HALOPHTHALIMIDE COMPOUNDS AND METHODS OF USE AGAINST TBI, INFLAMMATORY DISORDER, AUTOIMMUNE DISORDER, NEURODEGENERATIVE DISEASE OR VIRAL INFECTION” (The United States of America, as represented by the …, priority 2022, published 2026)

Assays:
[1] = system: LPS-induced nitrite in RAW 264.7 cells; assay: LPS-induced nitrite production in RAW 264.7 cells (Griess reagent / fluorometric kit); assay type: cell-based, mouse; settings: for nitrite level, % of vehicle control: LPS-challenged RAW 264.7 cells, percentage of vehicle control value (control = 100%), mean ± S.E.M., n = 3; for Nitrite, % Change versus Control (± s.e.m.): 10 uM
Procedure: Nitrite ion detection in drug treated […] cell culture media: To measure the levels of nitrite ion NO2—) the Griess Reagent System (Promega, Madison, WI, Cat #G2930) was utilized. The protocol followed was that recommended by the manufacturer. In brief a NO2— ion standard curve was prepared in culture media of the same composition to that used for the cell culture study. The concentration range of the standard curve was from 1.5 µM to 100 µM. Equal volumes (50 μL) of standards and unknown samples were added to clear 96 well plates in duplicate. Then 50 μL of sulfanilamide solution was added to each well and the plate was covered and incubated in the dark for 10 min. After the incubation period 50 μL of N-1-napthylethylenediamine dihydrochloride solution was added to each well and the plate was incubated in dark for a further 10 min. After this incubation, the plate was read at 550 nm on a SPECTRAmax PLUS plate reader and the absorbances were used to generate a NO2— standard curve and the NO2— ion levels of the unknown samples are determined using SoftMax Pro V5, Molecular Devices.
Most neurons are highly vulnerable to RNS and ROS. Nitric oxide (NO) is one of RNSs, which is very short lived and cannot be readily measured. However, nitrite is a stable end product of nitric oxide metabolism. Therefore, nitrite acts as a surrogate measure of NO. The Griess Reagent System (Promega Corporation, Madison, WI) can be applied to measure nitrite levels in culture media following the manufacturer's protocol, and this system was used in the present study as it is a more sensitive assay compared to quantifying actions on TNF-α by ELISA assay. […] This challenge induces high level of TNF-α protein accompanied by a robust generation of nitrite.
(§1) Cells were propagated as described by ATCC guidelines.

[2] = Phase I metabolic stability in human liver microsomes (+/- NADPH, LC/MS); assay type: in vitro ADME; settings: for % Compound Remaining (mean), NADPH: with NADPH; for % Compound Remaining (mean), -NADPH: without NADPH
Procedure: The fluorinated compounds were evaluated under the more metabolically demanding conditions of a Phase-1-type microsomal analysis. […] For this initial comparison, the 7-fluoro-dithiopomaldiomide 30 was selected owing to its combination of favorable biological parameters and general ease of synthesis. The reactions on each sample were initiated by addition of human liver microsomes in the presence or absence of an NADPH regenerating system, and compound disappearance was monitored via LC/MS (FIG. 14, Table 10).

TNF-α = assay: LPS-induced TNF-α production in RAW 264.7 cells (ELISA); assay type: cell-based, mouse; settings: for TNF-α % Δ: LPS-challenged RAW 264.7 cells, percentage of vehicle control value (control = 100%), mean ± S.E.M., n = 3; for TNF-a, % Change versus Control (± s.e.m.): 10 uM
Procedure: Enzyme-linked immunosorbent assay for TNF-α protein: Media TNF-α levels were measured by use of the Biolegend ELISA MAX Set Delux ELISA (#430904). The protocol used was that recommended by the manufacturer. In brief, a day prior to performing the assay, a 96 well plate was coated with a capture antibody directed against TNF-α. The following day the assay plate was washed and blocked with the kit blocking agent for 1 h while being mixed on a plate shaker at 200 rpm (all incubations were mixed at 200 rpm unless stated otherwise). A TNF-α protein standard curve was prepared in the assay diluent following the kit instructions and unknown media samples were likewise diluted in the same assay diluent. After blocking, the plate was washed and then both the standards and unknown media samples were added to the plate in duplicate. The standards and unknown samples were incubated for 2 h. After the incubation, the plate was washed and then the biotin labeled detection antibody was added to each well and incubated for a further 1 h. After this incubation, the avidin-HRP conjugate complex was added to each well and incubated for 30 min. The plate was washed and the chromogenic substrate 3,3′,5,5′-tetramethylbenzidine solution was added to each well. At this point the plate was covered and incubated in the dark for 15 min, with no mixing. After 15 min the chromogenic reaction was stopped by the addition of 2 N H2SO4 and the absorbance was read at 450 nm and for background subtractions at 570 nm, on a SPECTRAmax PLUS plate reader. The absorbances were used to generate a TNF-α a protein standard curve and the protein levels in the unknown samples were determined using SoftMax Pro V5, Molecular Devices.
as §1

RAW 264.7 cells = assay: Cell viability of drug treated RAW 264.7 cells (CellTiter 96 AQueous One, MTS); settings: for Cell Viability % Δ: RAW 264.7 cells, percentage of vehicle control value, mean ± S.E.M., n = 3; for Viability, % Change versus Control (± s.e.m.): 10 uM
Procedure: Assessments of drug anti-TNF-α and nitric oxide generation in RAW 264.7 cells: RAW 264.7 cells were purchased from ATCC Manassas, VA, USA). The cells were grown in DMEM media (Invitrogen, DMEM, high glucose, GlutaMAX Supplement, pyruvate, #10569-010) supplemented with 10% FBS (Invitrogen, Fetal Bovine Serum, qualified, heat inactivated, #16140-071) with penicillin and streptomycin (Invitrogen, Penicillin-Streptomycin (10,000 U/mL), #15140-122) and were maintained at 37 C and 5% CO2. The cells were grown to 75%-85% confluence on 10 cm plates (corning-Fal-con, #353003) following the protocol described by ATTC. to assess for drug effects on LPS-induced markers of inflammation, namely TNF-α protein and nitrite ion levels (NO2, a stable end-product of nitric oxide metabolism) cells were seeded into 24 well (VWR, #10062-896) at a density of 200×10^3 cells per well. On each plate there was one blank well where no cells were added yet culture media in the well was treated similarly to wells with cells (n=1). The blank well media was used for background subtraction for various downstream assays. twenty-four hours after seeding the plate the seeding media was replaced with fresh media. Two hours after this the cells were exposed to a range of concentrations of drug test-compound(s) dissolved in 100% tissue culture grade dimethyl sjloxide (DMSO, SIGMA #D2650). Drug stocks were prepared in a 200 times more concentrated stock in DMSO. The final concentration of DMSO added to the cells was 0.5%. The effects of each concentration of drug were assessed in 4 wells per concentration in the 24 well plate (n=3 #-4). On each plate one set of wells were assigned as drug-vehicle control (i.e. DMSO), one test compound was assessed on one 24 well plate. […] One hour after the drugs were added the cells were challenged with lipopolysaccharide (LPS, SIGMA, serotype 055:B5) at a final concentration of 60 ng/ml. Twenty to twenty-four hours after the cells were challenged with LPS the culture media was collected and utilized for the measurement of markers of inflammation.
Cellular viability assessment of drug treated RAW 264.7 cells: RAW 264.7 cell viability was determined by use of the CellTiter 96 AQueous One Solution Cell Proliferation Assay (Promega, Madison, WI). Changes in cellular health status were determined by use of indirect measures related to the formation of a colored tetrazolium dye product that can be measured spectrophotometrically at 490 nm. An increase in absorbance at 490 nm is indicative of an increase in numbers of healthy cells; similarly a reduction in absorbance is indicative of a reduction of healthy cells. After the culture media was harvested for use in TNF-α and NO2— ion assays, the media was replaced with 0.5 mL of fresh media plus 100 μL of the cell viability reaction mixture. After a 20-30 min incubation at 37° C. with 5% CO2 the absorbance at 490 nm was obtained using an infinite M200 PRO plate reader (TECAN, USA).
Statistical analyses for RAW-derived assays: Data are expressed as a percentage change from the DMSO-vehicle control measurements. Measurements are expressed as mean±standard errors, where the n number represents the number of wells in a 24 well plate. Due to the presence of one blank control well on each plate, for some drug concentrations the n number is 3 # and not 4. Statistical comparisons were undertaken by use of a One-Way ANOVA with appropriate Bonferroni corrections for multiple comparisons, as required (GraphPad InStat Version 3.05). P values of <0.05 are considered to be of statistical significance.
RAW 264.7 cell culture: RAW 264.7 mouse cells were purchased from ATCC (Manassas, VA, USA) and grown in DMEM media supplemented with 10% FCS, penicillin 100 U/ml and streptomycin 100 μg/ml (ThermoFisher Scientific, Asheville, NC, USA). The cells were maintained at 37° C. and 5% CO2.

[3] = target: cereblon (CRBN/DDB1-CUL4A-Rbx1 complex) / BRD3 (Homo sapiens (Human), UniProt Q96SW2); assay: Cereblon/BRD3 binding assay (AlphaScreen / FRET); settings: cereblon/BRD3 binding FRET assay
Procedure: After 30 min of incubation with shaking at room temperature, AlphaLISA anti-FLAG Acceptor and Alpha Glutathione Donor beads (PerkinElmer) were sequentially added and then incubated for 1 hr at room temperature for each of the added chemicals. Alpha counts were thereafter read on a Synergy Neo2 (BioTek) for the analysis. Relative activity or inhibition was calculated as the highest value, which was set to 100%, and the lowest value was set to 0% after subtraction of the “blank value” from all readings.
After 30 min of incubation with shaking at room temperature, AlphaLISA anti-FLAG Acceptor and Alpha Glutathione Donor beads (PerkinElmer) were sequentially added and then incubated for 1 h at room temperature for each of the added chemicals. Alpha counts were thereafter read on a Synergy Neo2 (BioTek) for the analysis. The relative activity of the alpha signal was calculated after subtraction of the “blank value” from all readings, and the value of the vehicle group was then set as 100%.

SALL4 = SALL4 (Homo sapiens (Human), UniProt Q9UJQ4); assay: SALL4 expression in Tera-1 cells (Western blot); assay type: cell-based
Procedure: (§2) For Western blot analysis, total proteins were extracted using RIPA buffer (ThermoFisher Scientific, Waltham, MA) containing Halt Protease Inhibitor Cocktail (ThermoFisher Scientific). […] After incubation at 4° C. overnight, the following HRP conjugated secondary antibodies were used: (i) goat anti-rabbit IgG (ThermoFisher Scientific) for ikaros and aiolos, and (ii) goat anti-mouse IgG (ThermoFisher Scientific) for SALL4 and GAPDH. […] Antigen-antibody complexes were detected using enhanced chemiluminescence (Thermo, iBright CL1500).
(§3) Specifically, MM1.S cells were obtained from ATCC (Manassas, VA, USA), grown in RPMI media supplemented with 10% FBS, penicillin 100 U/mL, and streptomycin […], and maintained at 37° C. and 5% CO2.
as §2, with “MA, USA)” for “MA)”, “Scientific). Thereafter, the proteins were separated by gel electrophoresis and then transferred to polyvinylidene difluoride (PVDF) membranes (ThermoFisher Scientific), as described previously.” for “Scientific).”, “HRP-conjugated” for “HRP conjugated”, “Ikaros” for “ikaros”, “Aiolos,” for “aiolos,”, “(ThermoFisher Scientific,” for “(Thermo,”

Aiolos = Aiolos (Homo sapiens (Human), UniProt Q9UKT9); assay: Aiolos degradation in MM1.S cells (Western blot); assay type: cell-based; settings: 1 μM, relative to GAPDH
Procedure: as §2, §3
(§4) For Western blot analysis, total proteins were extracted using RIPA buffer (ThermoFisher Scientific, Waltham, MA, USA) containing Halt Protease Inhibitor Cocktail (ThermoFisher Scientific). Thereafter, the proteins were separated by gel electrophoresis and then transferred to polyvinylidene difluoride (PVDF) membranes (ThermoFisher Scientific), as described previously. […] Antigen-antibody complexes were detected using enhanced chemiluminescence (ThermoFisher Scientific, iBright CL1500).

Ikaros = Ikaros (Homo sapiens (Human), UniProt Q13422); assay: Ikaros degradation in MM1.S cells (Western blot); assay type: cell-based; settings: 1 μM, relative to GAPDH
Procedure: as §2, §3, §4

[4] = LPS-activated RAW 264.7 cells (Table 9)

Chain of cereblon (CRBN/DDB1-CUL4A-Rbx1 complex) / BRD3 (Q96SW2 whole entry): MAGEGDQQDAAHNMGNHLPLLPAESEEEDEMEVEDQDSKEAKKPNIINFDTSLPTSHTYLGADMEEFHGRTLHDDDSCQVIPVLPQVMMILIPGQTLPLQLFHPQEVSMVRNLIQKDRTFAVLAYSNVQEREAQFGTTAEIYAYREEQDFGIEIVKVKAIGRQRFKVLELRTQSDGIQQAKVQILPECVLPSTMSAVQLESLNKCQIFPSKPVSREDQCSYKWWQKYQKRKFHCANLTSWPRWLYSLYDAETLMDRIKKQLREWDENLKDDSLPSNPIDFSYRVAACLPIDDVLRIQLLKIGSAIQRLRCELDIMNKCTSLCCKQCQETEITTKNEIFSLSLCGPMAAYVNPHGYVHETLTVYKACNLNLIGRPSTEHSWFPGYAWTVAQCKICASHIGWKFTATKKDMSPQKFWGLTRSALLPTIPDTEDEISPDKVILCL
Chain of cereblon (CRBN/DDB1-CUL4A-Rbx1 complex) / BRD3 (Q16531 whole entry partner): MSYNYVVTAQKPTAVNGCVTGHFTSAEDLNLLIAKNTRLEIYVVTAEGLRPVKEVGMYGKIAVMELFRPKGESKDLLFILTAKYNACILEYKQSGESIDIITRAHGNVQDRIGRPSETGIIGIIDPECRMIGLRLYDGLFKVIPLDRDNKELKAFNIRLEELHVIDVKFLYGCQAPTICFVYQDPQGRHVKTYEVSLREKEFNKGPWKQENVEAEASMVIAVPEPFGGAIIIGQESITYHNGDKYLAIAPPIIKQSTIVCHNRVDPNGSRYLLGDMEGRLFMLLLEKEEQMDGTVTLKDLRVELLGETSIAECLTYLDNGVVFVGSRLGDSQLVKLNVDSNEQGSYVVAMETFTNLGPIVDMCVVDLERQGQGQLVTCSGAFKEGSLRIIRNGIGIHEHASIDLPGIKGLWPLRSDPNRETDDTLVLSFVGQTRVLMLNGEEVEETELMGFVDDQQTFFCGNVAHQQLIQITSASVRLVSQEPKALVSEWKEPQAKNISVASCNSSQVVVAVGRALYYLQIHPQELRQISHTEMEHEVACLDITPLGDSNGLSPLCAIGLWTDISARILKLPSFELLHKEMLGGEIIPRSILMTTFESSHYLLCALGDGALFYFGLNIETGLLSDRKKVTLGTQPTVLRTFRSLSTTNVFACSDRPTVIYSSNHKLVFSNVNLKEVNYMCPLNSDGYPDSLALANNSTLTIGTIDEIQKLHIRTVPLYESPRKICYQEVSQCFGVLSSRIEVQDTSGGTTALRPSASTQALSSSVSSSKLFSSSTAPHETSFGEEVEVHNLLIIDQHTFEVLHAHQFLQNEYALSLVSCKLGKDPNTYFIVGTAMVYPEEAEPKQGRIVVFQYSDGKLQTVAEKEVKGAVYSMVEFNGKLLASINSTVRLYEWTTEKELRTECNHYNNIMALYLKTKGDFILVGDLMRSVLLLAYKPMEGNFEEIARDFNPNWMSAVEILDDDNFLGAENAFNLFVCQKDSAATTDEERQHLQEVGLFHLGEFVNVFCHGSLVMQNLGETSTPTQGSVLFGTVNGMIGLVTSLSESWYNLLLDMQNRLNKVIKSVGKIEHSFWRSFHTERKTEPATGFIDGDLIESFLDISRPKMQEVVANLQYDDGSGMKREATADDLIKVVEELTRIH
Chain of cereblon (CRBN/DDB1-CUL4A-Rbx1 complex) / BRD3 (Q13619 whole entry partner): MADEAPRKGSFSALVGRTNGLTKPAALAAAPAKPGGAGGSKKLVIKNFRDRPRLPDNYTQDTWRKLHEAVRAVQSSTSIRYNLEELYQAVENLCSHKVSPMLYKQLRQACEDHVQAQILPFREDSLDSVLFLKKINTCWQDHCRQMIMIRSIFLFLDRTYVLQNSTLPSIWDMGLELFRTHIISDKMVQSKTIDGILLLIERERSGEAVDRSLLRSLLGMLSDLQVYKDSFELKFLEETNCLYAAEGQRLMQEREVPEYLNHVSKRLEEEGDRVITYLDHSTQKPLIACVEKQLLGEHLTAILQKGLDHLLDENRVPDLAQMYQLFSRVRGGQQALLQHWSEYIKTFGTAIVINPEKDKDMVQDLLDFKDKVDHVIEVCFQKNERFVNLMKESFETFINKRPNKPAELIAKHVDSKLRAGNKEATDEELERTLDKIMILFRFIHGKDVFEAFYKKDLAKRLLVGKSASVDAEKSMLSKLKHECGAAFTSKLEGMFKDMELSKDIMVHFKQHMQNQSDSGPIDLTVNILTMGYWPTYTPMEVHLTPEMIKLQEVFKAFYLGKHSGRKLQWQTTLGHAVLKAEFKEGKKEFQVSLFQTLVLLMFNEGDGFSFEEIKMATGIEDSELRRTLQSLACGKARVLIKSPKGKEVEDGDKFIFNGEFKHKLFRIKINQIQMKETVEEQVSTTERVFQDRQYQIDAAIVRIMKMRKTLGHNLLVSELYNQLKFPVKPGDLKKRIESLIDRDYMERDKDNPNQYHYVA
Chain of cereblon (CRBN/DDB1-CUL4A-Rbx1 complex) / BRD3 (P62877 whole entry partner): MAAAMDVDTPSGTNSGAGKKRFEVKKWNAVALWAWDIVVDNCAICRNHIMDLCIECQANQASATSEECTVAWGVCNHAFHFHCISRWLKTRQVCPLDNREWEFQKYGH

Q: Which “nitrite levels (in words)” value ([1]; six-compound pomalidomide grouping, RAW cell assay, FIGS. 12-13) does the source give for `Nc1cccc2c1C(=S)N(C1CCC(=S)NC1=O)C2=O` (stereo not drawn) [4′, 3,6′-dithiopomalidomide, reference compound] here?
A: reduced nitrite levels significantly

Q: And the material consumed ([2]; after 1 hr incubation, human liver microsomes)?
A: more than half

Q: And the “stability in human liver microsomes (in words)” value ([2]; with and without NADPH)?
A: moderate level of instability

Q: What does the source list for `C[C@H]1[C@H](N2C(=O)c3c(F)ccc(F)c3C2=O)C[C@@H]2C[C@H]1C2(C)C` [Compound 17, 4,7-Difluoro-2-((1R,2R,3R,5S)-2,6,6-trimethylbicyclo[3.1.1]heptan-3-yl) isoindoline-1,3-dione]?
A: nitrite level, % of vehicle control ([1]; 1 μM): 90 ± 5%; nitrite level, % of vehicle control ([1]; 10 μM): 54 ± 3%; TNF-α % Δ (TNF-α; 1 μM): 95 ± 3%; TNF-α % Δ (TNF-α; 10 μM): 77 ± 3%; Cell Viability % Δ (RAW 264.7 cells; 1 μM): 100 ± 4%; Cell Viability % Δ (RAW 264.7 cells; 10 μM): 81 ± 5%

Q: Which “Nitrite, % Change versus Control (± s.e.m.)” value [1, 4] does the source give for `Nc1ccc(F)c2c1C(=O)N(C1CCC(=O)NC1=O)C2=O` (stereo not drawn) [drawing 91] here?
A: 86 ± 3.9 (N.S.) %

Q: What about the “TNF-a, % Change versus Control (± s.e.m.)” value (TNF-α; [4]) of the same compound?
A: 98 ± 1.5 (N.S.) %

Q: And the “Viability, % Change versus Control (± s.e.m.)” value (RAW 264.7 cells; [4])?
A: 102 ± 0.8 (N.S.) %

Q: For `Nc1cccc2c1C(=O)N(C1CCC(=O)NC1=O)C2=O` (racemic) [Pomalidomide, pomalidomide, reference compound], which “cereblon binding (in words)” value [3] is on record?
A: potently bind to cereblon

Q: What about the SALL4 expression levels (SALL4; Tera-1 cells, 1 μM) of the same compound?
A: induced a decrease in expression levels of SALL4

Q: What about the SALL4 levels (SALL4; human Tera-1 cells, 0.01, 0.1, 1 μM, relative to GAPDH) of the same compound?
A: dramatically lowerered

Q: What about the Aiolos levels (Aiolos) of the same compound?
A: dramatically lowerered

Q: What about the Ikaros levels (Ikaros) of the same compound?
A: dramatically lowerered

Q: Which results are given for `CC(C)Nc1ccc(F)c2c1C(=S)N(C1CCC(=S)NC1=O)C2=O` (stereo not drawn) [Compound 28, 7-fluoro-4-(isopropylamino)-2-(2-oxo-6-thioxopiperidin-3-yl)-3-thioxoisoindolin-1-one]?
A: Nitrite, % Change versus Control (± s.e.m.) ([1]; LPS-activated RAW 264.7 cells): 32.3 ± 1.1%; TNF-a, % Change versus Control (± s.e.m.) (TNF-α; LPS-activated RAW 264.7 cells): 74.7 ± 2.3%; Viability, % Change versus Control (± s.e.m.) (RAW 264.7 cells; LPS-activated RAW 264.7 cells): 74.1 ± 4.2%

Q: For `C[C@H]1[C@H](N2C(=O)c3c(F)c(F)c(F)c(F)c3C2=O)C[C@@H]2C[C@H]1C2(C)C` [Compound 11, 4,5,6,7-Tetrafluoro-2-((1R,2R,3R,5S)-2,6,6-trimethylbicyclo[3.1.1]heptan-3-yl) isoindoline-1,3-dione], which “nitrite level, % of vehicle control” value ([1]; 1 μM) is on record?
A: 48 ± 2%

Q: And the “nitrite inhibitory activity (comparison in words)” value ([1]; 1 μM, tetrafluoro vs corresponding difluoro or stereoisomer)?
A: more potent nitrite inhibitory activity

Q: What about the “TNF-α % Δ” value (TNF-α; 1 μM) of the same compound?
A: 76 ± 2%

Q: And the “Cell Viability % Δ” value (RAW 264.7 cells; 1 μM)?
A: 90 ± 4%

Q: For `Nc1ccc(F)c2c1C(=S)N(C1CCC(=S)NC1=O)C2=O` (stereo not drawn) [drawing 92], which “Nitrite, % Change versus Control (± s.e.m.)” value [1, 4] is on record?
A: 22 ± 1.7 ( **** ) %

Q: And the “TNF-a, % Change versus Control (± s.e.m.)” value (TNF-α; [4])?
A: 109 ± 2.4 (N.S.) %

Q: And the “Viability, % Change versus Control (± s.e.m.)” value (RAW 264.7 cells; [4])?
A: 95 ± 3.0 (N.S.) %

Q: With `CC(C)Nc1ccc(F)c2c1C(=O)N(C1CCC(=S)NC1=O)C2=O` (stereo not drawn) [Compound 27, 4-fluoro-7-(isopropylamino)-2-(2-oxo-6-thioxopiperidin-3-yl) isoindoline-1,3-dione] as the compound, how does the “Nitrite, % Change versus Control (± s.e.m.)” value ([1]; LPS-activated RAW 264.7 cells) read?
A: 74.8 ± 1.2%

Q: What about the “TNF-a, % Change versus Control (± s.e.m.)” value (TNF-α; LPS-activated RAW 264.7 cells) of the same compound?
A: 94.4 ± 2.8%

Q: And the “Viability, % Change versus Control (± s.e.m.)” value (RAW 264.7 cells; LPS-activated RAW 264.7 cells)?
A: 112.3 ± 1.7%

Q: What does the source list for `Nc1cccc2c1C(=O)N(C1CCC(=O)NC1=O)C2=O` (stereo not drawn)?
A: Nitrite, % Change versus Control (± s.e.m.) [1, 4]: 91 ± 1.6 (N.S.) %; TNF-a, % Change versus Control (± s.e.m.) (TNF-α; [4]): 95 ± 4.8 (N.S.) %; Viability, % Change versus Control (± s.e.m.) (RAW 264.7 cells; [4]): 95 ± 1.2 (N.S.) %

Q: With `Nc1ccc(F)c2c1C(=S)N(C1CCC(=S)NC1=O)C2=O` (stereo not drawn) [drawing 96] as the compound, how does the “% Compound Remaining (mean), NADPH” value ([2]; human liver microsomes, 0 min) read?
A: 100%

Q: And the “% Compound Remaining (mean), NADPH” value ([2]; human liver microsomes, 30 min)?
A: 68%

Q: What about the “% Compound Remaining (mean), NADPH” value ([2]; human liver microsomes, 60 min) of the same compound?
A: 48%

Q: What about the “% Compound Remaining (mean), -NADPH” value ([2]; human liver microsomes, 0 min) of the same compound?
A: 100%

Q: And the “% Compound Remaining (mean), -NADPH” value ([2]; human liver microsomes, 30 min)?
A: 71%

Q: And the “% Compound Remaining (mean), -NADPH” value ([2]; human liver microsomes, 60 min)?
A: 53%
